#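 Assay format: 96-well plates, 48-hour exposure. The concentration for 50% growth inhibition is given as GI50.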 Active and inactive are the calls of the source. Rule as the data show it: active = GI50 up to about 1.1 µM and inactive = higher.
# How the values were obtained:
# Assay in all cases: NCI-60 cell line screen, 48 h
# [1] = system: COLO 205
# [2] = system: NCI-H460
# [3] = system: NCI-H522
# [4] = system: UACC-257
# [5] = system: IGROV-1
# [6] = system: MCF7
# [7] = system: OVCAR-5
# [8] = system: K562
# [9] = system: HCT-15
# [10] = system: OVCAR-4
# [11] = system: HCT-116
# [12] = system: RPMI-8226
# [13] = system: SF-268
# [14] = system: SW-620
# [15] = system: OVCAR-8
# [16] = system: NCI/ADR-RES
# [17] = system: SR
# [18] = system: SK-MEL-2
# [19] = system: UO-31
# [20] = system: SN12C
Structure (SMILES),GI50 [1],GI50 [2],GI50 [3],GI50 [4],GI50 [5],GI50 [6],GI50 [7],GI50 [8],GI50 [9] [µM],GI50 [10],GI50 [11],GI50 [12],GI50 [13],GI50 [14],GI50 [15],GI50 [16],GI50 [17],GI50 [18],GI50 [19],GI50 [20]
Cc1nc2ccc(NCCN(C)C)c3c(=O)c4ccccc4n1c23,1.17 µM (inactive),0.736 µM (active),1.52 µM (inactive),4.65 µM (inactive),1.75 µM (inactive),3.3 µM (inactive),4.9 µM (inactive),1.39 µM (inactive),1.25,1.83 µM (inactive),0.851 µM (active),2.04 µM (inactive),3.48 µM (inactive),0.601 µM (active),0.914 µM (active),1.06 µM (active),0.439 µM (active),5.47 µM (inactive),2.13 µM (inactive),2.31 µM (inactive)
O=C1CC(/C=C/c2ccco2)=C(O)C1=O,15.7 µM (inactive),17.6 µM (inactive),12.2 µM (inactive),15.7 µM (inactive),10.7 µM (inactive),7.01 µM (inactive),13.9 µM (inactive),12.1 µM (inactive),13.5,14.2 µM (inactive),13.6 µM (inactive),13.2 µM (inactive),18.6 µM (inactive),10.2 µM (inactive),13.8 µM (inactive),24.2 µM (inactive),6.05 µM (inactive),16.4 µM (inactive),20.7 µM (inactive),13.6 µM (inactive)
Cn1c(=O)sc2cc(C(=S)N3CCOCC3)ccc21,> 80.7 µM (inactive),> 100 µM (inactive),87.3 µM (inactive),> 100 µM (inactive),> 51.5 µM (inactive),> 100 µM (inactive),> 100 µM (inactive),41.2 µM (inactive),> 92.3,> 100 µM (inactive),> 100 µM (inactive),> 79.8 µM (inactive),> 100 µM (inactive),> 100 µM (inactive),> 47.1 µM (inactive),> 73.1 µM (inactive),69.7 µM (inactive),> 100 µM (inactive),60 µM (inactive),> 100 µM (inactive)
c1ccc2c(c1)CCCN1CCc3ccccc3C21 (stereo not given),46.7 µM (inactive),33.9 µM (inactive),> 100 µM (inactive),77.1 µM (inactive),40.3 µM (inactive),> 100 µM (inactive),42.2 µM (inactive),30 µM (inactive),> 100,9.46 µM (inactive),38.5 µM (inactive),36.2 µM (inactive),92 µM (inactive),35.5 µM (inactive),> 100 µM (inactive),78.3 µM (inactive),58.7 µM (inactive),96.6 µM (inactive),30.3 µM (inactive),57 µM (inactive)
CC(=O)OCCCC(NC(=O)OC(C)(C)C)C(=O)NC(CCCOC(C)=O)C(=O)NC(Cc1ccc([N+](=O)[O-])cc1)C(=O)NCC(=O)OCc1ccccc1 (stereo not given),17.6 µM (inactive),15.6 µM (inactive),18.1 µM (inactive),15.3 µM (inactive),17.9 µM (inactive),17.9 µM (inactive),15.8 µM (inactive),23.7 µM (inactive),15.1,12.3 µM (inactive),18.1 µM (inactive),19.9 µM (inactive),20.2 µM (inactive),16.9 µM (inactive),17.3 µM (inactive),19.2 µM (inactive),15.6 µM (inactive),15.4 µM (inactive),16.1 µM (inactive),17.7 µM (inactive)
CCC1(c2ccc(N)cc2)CCC(=O)NC1=O (stereo not given) [AMINOGLUTETHIMIDE],1470 µM (inactive),2580 µM (inactive),2640 µM (inactive),2650 µM (inactive),3450 µM (inactive),3010 µM (inactive),> 4920 µM (inactive),2080 µM (inactive),2380,1970 µM (inactive),2620 µM (inactive),2490 µM (inactive),2860 µM (inactive),3520 µM (inactive),3270 µM (inactive),1680 µM (inactive),> 3820 µM (inactive),3510 µM (inactive),1930 µM (inactive),3400 µM (inactive)

# Source: ChEMBL document CHEMBL1201862, “PubChem BioAssay data set” (2004)
